Test results: US9844656B2, “Localization of agents at a target site with a composition and an energy source” (The Regents of the University of California, priority 2010, dated 2017)

Tests used:
[1] = test system: MET-1^fvb2 mammary carcinoma cells; assay: In vitro viability assay (MTT); type: cell-based, mouse; conditions: Met-1 cell line, 72 hours, read-out: IC50 (cytotoxicity)
Protocol: MET-1^fvb2 mammary carcinoma cells were obtained from the Alexander Borowsky Laboratory (UC Davis). MET-1 cells were plated at 2000 cells in 50 μl media per well in 96-well tissue culture plates in high glucose Dulbecco's Modified Eagle's Medium (DMEM, Invitrogen, Carlsbad, Calif.) supplemented with 1% PenStrep and 10% FBS. Cells were given six hours to attach to the plate surface. Treatments were added to each well in 100 μl media and experiments were performed in triplicate. Doxil®, a commercial product of ALZA corporation and manufactured by Centocor Ortho Biotech, was purchased from Cardinal Health Care (Dublin, Ohio) and the in vitro viability was compared with the liposomal copper-doxorubicin.
Plates were incubated for 72 hours at 37° C. in 5% CO2. 3-(4,5-dimethylthiazol-2-yl)-2,5-diphenyltetrazolium bromide (MTT, Invitrogen, Carlsbad, Calif.) reagent was added to media at a concentration of 0.5 mg/ml, and cells were incubated 2 hours at 37° C. in 5% CO2. […] Absorbance was measured using Tecan Infinite® M1000 Microplate Reader (San Jose, Calif.) at wavelength 570 nm (reference of 670 nm). Best-fit curves and IC50 values were calculated for concentration-response curves using GraphPad Prism software (GraphPad Inc., La Jolla, Calif.). Average IC50 values calculated from a minimum of three replicate experiments for each preparation.

[2] = test system: NDL cells; assay: Intracellular trafficking and subcellular localization of doxorubicin; type: cell-based; conditions: post incubation at 37° C.
[3] = Ex vivo imaging of doxorubicin accumulation in mouse heart; conditions: 40 min post administration
Protocol: FIG. 15. Ex vivo imaging of doxorubicin accumulation in mouse heart after liposomes were injected into the tail vein and allowed to circulate. Heart was removed after euthanasia to assess fluorescence. a) Doxorubicin fluorescence in hearts of mice injected with liposomal doxorubicin in lyso-temperature sensitive liposomes when Dox was loaded with ammonium sulfate method (ASDox-LTSLs) or loaded in liposomes containing 100 mM copper/270 mM TEA (CuDox-LTSLs), and loaded in temperature sensitive liposomes with 25% cholesterol containing 100 mM copper/270 mM TEA (CuDox-TSLs+25% chol) compared to those injected with free Dox. Animals were euthanized 40 min post administration of free or liposomal doxorubicin. Animals were perfused with saline and hearts were dissected prior to Maestro imaging. Statistical analyses were performed using one-way ANOVA followed by a Tukey Post Hoc test. *p<0.05, **p<0.01. Inset images of heart acquired by Maestro imaging system (white indicates higher doxorubicin fluorescence intensity).

[4] = mouse, in vivo

With `COc1cccc2c1C(=O)c1c(O)c3c(c(O)c1C2=O)C[C@@](O)(C(=O)CO)C[C@@H]3O[C@H]1C[C@H](N)[C@H](O)[C@H](C)O1.Cl` [free doxorubicin, Doxorubicin hydrochloride] as the compound, how does the IC50 [1] read?
The IC50 was 20 ± 10 nM.

What about the “time at which the nucleus showed doxorubicin fluorescence” value [2] of the same compound?
Its value is 15 min.

What about the “increase in cardiac accumulation of doxorubicin compared to liposomal copper-doxorubicin in temperature-sensitive liposomes” value [3] of the same compound?
The value was 4 fold.

What about the skin fluorescence trend [4] of the same compound?
Its skin fluorescence trend is “decreasing with time”.
